Measured values reported in paper doi:10.1101/211839v1 (biorxiv, 2017).

Key:
HDAC11 (untagged) [1] = target: T1, HDAC11 (untagged) (Homo sapiens, UniProt Q96DB2); test: end-point fluorescence demyristoylase assay, trypsin release of AMC; assay type: biochemical
T1 sequence (Q96DB2 1-347): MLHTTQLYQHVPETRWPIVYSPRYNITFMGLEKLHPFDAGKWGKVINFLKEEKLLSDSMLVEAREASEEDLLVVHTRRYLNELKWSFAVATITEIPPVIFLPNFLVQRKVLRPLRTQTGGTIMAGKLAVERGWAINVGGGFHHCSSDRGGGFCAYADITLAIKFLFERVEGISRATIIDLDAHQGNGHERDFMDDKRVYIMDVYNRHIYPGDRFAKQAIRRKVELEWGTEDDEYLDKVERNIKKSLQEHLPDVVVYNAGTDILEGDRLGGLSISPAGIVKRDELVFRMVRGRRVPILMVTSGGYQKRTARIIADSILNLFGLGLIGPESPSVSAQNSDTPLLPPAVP

HDAC11 (untagged) [2] = target: T1, HDAC11 (untagged); test: continuous fluorescence assay, trypsin-coupled, initial rates; assay type: biochemical; settings: […] enzyme, HEPES pH […], no BSA, […] °C

Q: Which IC50 (HDAC11 (untagged) [1]) does the source give for `C/C=C1\NC(=O)[C@H]2CSSCC/C=C/[C@H](CC(=O)N[C@H](C(C)C)C(=O)N2)OC(=O)[C@H](C(C)C)NC1=O` [romidepsin] here?
A: Its IC50 is greater than 100 µM.

Q: Which Km (HDAC11 (untagged) [2]) does the source give for Ac-ETDKmyr-AMC [6e] here?
A: Its Km is 60 µM.
